Data set [1] concerns MET. The conditions noted are these: read-out: IC50 for MET; estimated; cited from earlier work.
Data set [2] deals with RET. The conditions noted are these: estimated; cited from earlier work.
In data set [3] the target is T1, FMO5 (Homo sapiens, UniProt P49326).
T1 construct: purchased Gentest Corp., Woburn, MA, USA; host or cells: insect cells (baculovirus)
T1 sequence (P49326 1-533): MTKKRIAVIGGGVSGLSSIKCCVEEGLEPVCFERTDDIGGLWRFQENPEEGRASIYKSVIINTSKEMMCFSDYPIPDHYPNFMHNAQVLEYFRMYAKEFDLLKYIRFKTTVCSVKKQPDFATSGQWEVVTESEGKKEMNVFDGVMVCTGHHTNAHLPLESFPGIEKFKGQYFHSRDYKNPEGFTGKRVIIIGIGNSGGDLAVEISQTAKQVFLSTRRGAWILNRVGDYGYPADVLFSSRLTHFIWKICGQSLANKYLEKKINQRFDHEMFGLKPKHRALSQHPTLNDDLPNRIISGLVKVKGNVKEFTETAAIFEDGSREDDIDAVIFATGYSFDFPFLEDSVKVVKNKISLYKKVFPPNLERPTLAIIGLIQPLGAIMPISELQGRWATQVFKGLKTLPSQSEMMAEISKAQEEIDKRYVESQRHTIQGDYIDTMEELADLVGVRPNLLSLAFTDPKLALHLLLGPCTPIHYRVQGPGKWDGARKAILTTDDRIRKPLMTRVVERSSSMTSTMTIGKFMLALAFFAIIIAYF
Nature of the data set: Oxidation of cabozantinib by recombinant FMO5. The format is in vitro ADME. The settings on record: human recombinant enzyme, data not shown.

Data set [4] concerns VEGFR2. The conditions noted are these: read-out: IC50 for VEGFR2; estimated; cited from earlier work.
Data set [5] has as its target T2, CYP3A4 + cyt b5 (Homo sapiens, UniProt P08684).
T2 construct: purchased Corning (Corning, NY, USA); host or cells: insect cells (baculovirus)
Nature of the data set: Cabozantinib oxidation by recombinant CYP3A4 in the presence of cyt b5 (Supersomes). Format: in vitro ADME. The settings on record: Supersomes with cyt b5 vs without, 50 µM cabozantinib. The source says: Cabozantinib was from MedChemExpress (Monmouth Junction, NJ, USA). Standard of cabozantinib N-oxide was purchased from Toronto Research Chemicals (Toronto, Canada). Ketoconazole, NADPH and other chemicals were all purchased from Merck (Darnstadt, Germany). The purity of all chemicals met the standards of American Chemical Society, unless otherwise noted. Male human hepatic microsomes (pooled sample) (sample LOT: 3043885) were from Gentest Corp. (Woburn, MA, USA). Microsomes from livers of twelve human donors were obtained from Gentest Corp. (Woburn, MA, USA) (Lot. no. HG43-1, HG103, HG74, HG93, HG24, HG27, HG23, HG32, HK31, HK34, HG03 and HG42). Each human microsomal sample was characterized for CYP, FMO, total protein contents and specific CYP activities by Gentest Corp. and reanalyzed by us by assays described in the protocols of Gentest Corp. Our data were similar to those reported by Gentest Corp. (Table 1). Human recombinant enzymes were used in the forms of Supersomes™ and obtained from Corning (Corning, NY, USA). In Supersomes™, microsomal fractions were isolated from insect cells that were transfected with baculovirus constructs containing cDNA of human CYP enzymes (CYP1A1/2, 1B1, 2A6, 2B6, 2C8/9/18/19/, 2D6, 2E1, 3A4). The Supersomes™ also express NADPH:CYP oxidoreductase (POR). However, because they are microsomes (particles of broken endoplasmic reticulum), other enzymes (proteins) of the endoplasmic reticulum membrane (like NADH:cytochrome b5 reductase and cytochrome b5) are also expressed at basal levels in these Supersomes™. We also utilized Supersomes™, which overexpressed cytochrome b5, in a molar ratio of CYP to cytochrome b5 of 1 to 5. In Supersomes™, where cytochrome b5 was not overexpressed (see above), pure cytochrome b5 was added to reach a molar ratio of CYP to cytochrome b5 of 1 to 5. Reconstitution of Supersomes™ with purified cytochrome b5 was performed as described previously. Human recombinant FMOs and AO were also used in the forms of Supersomes™ (Gentest Corp., Woburn, MA, USA). These microsomal fractions were isolated from insect cells that are transfected with baculovirus constructs containing cDNA of human FMO1, FMO3, FMO5 or AO enzymes.
The reaction was initiated by adding NADPH. In control incubations, either microsomes or CYP (FMO, AO) or NADPH were omitted. […] The reaction was stopped by extraction with ethyl acetate (2 × 1 mL). […] Cabozantinib metabolites separated by HPLC were characterized by mass spectroscopy (see further details below).

Data set [6] has as its target T3, FMO3 (Homo sapiens, UniProt P31513).
T3 construct: purchased Gentest Corp., Woburn, MA, USA; host or cells: insect cells (baculovirus)
T3 sequence (P31513 1-532): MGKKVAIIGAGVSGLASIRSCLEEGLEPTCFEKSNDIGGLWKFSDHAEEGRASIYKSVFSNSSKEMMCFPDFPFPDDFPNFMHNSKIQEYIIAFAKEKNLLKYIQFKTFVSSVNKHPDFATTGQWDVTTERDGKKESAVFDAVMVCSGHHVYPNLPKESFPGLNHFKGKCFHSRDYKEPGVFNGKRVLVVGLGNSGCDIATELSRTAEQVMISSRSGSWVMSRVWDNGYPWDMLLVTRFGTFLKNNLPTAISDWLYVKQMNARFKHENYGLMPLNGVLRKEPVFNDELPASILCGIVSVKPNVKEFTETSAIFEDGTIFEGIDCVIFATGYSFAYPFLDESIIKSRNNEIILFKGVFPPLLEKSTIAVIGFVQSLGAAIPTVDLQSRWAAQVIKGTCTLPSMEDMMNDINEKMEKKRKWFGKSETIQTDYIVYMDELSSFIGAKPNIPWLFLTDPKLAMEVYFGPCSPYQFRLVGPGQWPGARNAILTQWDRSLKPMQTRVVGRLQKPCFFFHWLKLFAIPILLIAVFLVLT
Nature of the data set: Oxidation of cabozantinib by recombinant FMO3. Format: in vitro ADME. The settings on record: human recombinant enzyme, data not shown.

T2 sequence (P08684 whole entry): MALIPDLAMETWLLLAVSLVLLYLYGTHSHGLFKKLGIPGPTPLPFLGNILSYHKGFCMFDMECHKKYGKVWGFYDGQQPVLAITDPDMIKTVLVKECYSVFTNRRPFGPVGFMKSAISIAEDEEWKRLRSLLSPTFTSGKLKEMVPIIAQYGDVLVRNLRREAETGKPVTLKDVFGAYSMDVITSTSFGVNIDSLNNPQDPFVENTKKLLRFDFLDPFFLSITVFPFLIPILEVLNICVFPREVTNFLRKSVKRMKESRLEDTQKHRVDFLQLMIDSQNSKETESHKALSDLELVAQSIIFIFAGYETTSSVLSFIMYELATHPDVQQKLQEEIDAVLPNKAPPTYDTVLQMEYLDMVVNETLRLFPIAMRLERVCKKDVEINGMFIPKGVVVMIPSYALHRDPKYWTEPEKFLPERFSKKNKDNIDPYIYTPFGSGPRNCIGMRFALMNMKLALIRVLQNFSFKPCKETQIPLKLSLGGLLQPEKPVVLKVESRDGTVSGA

The term IC50 denotes the concentration at which inhibition is half-maximal. Turning to `COc1cc2nccc(Oc3ccc(NC(=O)C4(C(=O)Nc5ccc(F)cc5)CC4)cc3)c2cc1OC` [cabozantinib, N′1-{4-[(6,7-dimethoxyquinolin-4-yl)oxy]phenyl}-N1-(4-fluorophenyl)cyclopropane-1,1-dicarboxamide], the half-inhibitory concentration (IC50) is 2 nM in data set [1], […] in data set [2] and […] in data set [4]. The “Oxidation of cabozantinib by FMO 5” value in data set [3] is given as “ineffective”. The “Increase of oxidation / metabolite formation by co-expression of cyt b5 with CYP3A4” value in data set [5] was “more than 2.9 fold”. For the same compound, the “Oxidation of cabozantinib by FMO 3” value in data set [6] is on record as “ineffective”.
